Laboratory results as given in patent US6706740B2, “Fungicidal heterocyclic aromatic amides and their compositions, methods of use and preparation” (Dow AgroSciences LLC, priority 1999, dated 2004).
Read-outs that look alike come from different tables or passages of the source.

Key:
[1] = test system: Magnaporthe grisea (Pyricularia oryzae—PYRIOR); experiment: microbe, parasite or virus in culture; assay type: cell-based; conditions: Pyricularia oryzae, read-out: PYRIOR in vitro Growth Inhibition
[2] = test system: Rhizoctonia solani (RHIZSO); experiment: microbe, parasite or virus in culture; assay type: cell-based; conditions: Rhizoctonia solani, read-out: RHIZSO in vitro Growth Inhibition
[3] = test system: Mycosphaerella graminicola (Septoria tritici—SEPTTR); experiment: In vitro fungal growth inhibition, Mycosphaerella graminicola (SEPTTR); assay type: cell-based; conditions: Zymoseptoria tritici, read-out: SEPTTR in vitro Growth Inhibition
[4] = test system: Stagonospora nodorum (Leptosphaeria nodorum—LEPTNO); experiment: In vitro fungal growth inhibition, Stagonospora nodorum (LEPTNO); assay type: cell-based; conditions: Leptosphaeria, read-out: LEPTNO in vitro Growth Inhibition
[5] = test system: Ustilago maydis (USTIMA); experiment: microbe, parasite or virus in culture; assay type: cell-based; conditions: Mycosarcoma maydis, read-out: USTIMA in vitro Growth Inhibition
[6] = test system: Phytophthora infestans (PHYTIN); experiment: microbe, parasite or virus in culture; assay type: cell-based; conditions: Phytophthora infestans, read-out: PHYTIN in vitro Growth Inhibition
[7] = test system: Phytophthora infestans—PHYTIN; experiment: whole plant or invertebrate; assay type: in vivo; conditions: Phytophthora, in Solanum lycopersicum, 24 h, read-out: PHYTIN in vivo 1 Day Protectant
[8] = test system: Puccinia recondita—PUCCRT; experiment: Brown Rust of Wheat, in vivo whole plant, 24 Hour Protectant; conditions: for pest or weed control at 100 ppm: Puccinia, read-out: PUCCRT in vivo 1 Day Protectant
[9] = test system: Erysiphe graminis—ERYSGT; experiment: Powdery Mildew of Wheat, in vivo whole plant, 24 Hour Protectant; conditions: for pest or weed control at 100 ppm: Erysiphe, read-out: ERYSGT in vivo 1 Day Protectant
[10] = test system: Leptosphaeria nodorum—LEPTNO; experiment: Glume Blotch of Wheat, in vivo whole plant, 24 Hour Protectant; conditions: for pest or weed control at 100 ppm: Leptosphaeria, read-out: LEPTNO in vivo 1 Day Protectant
[11] = test system: Septoria tritici—SEPTTR; experiment: Leaf Blotch of Wheat, in vivo whole plant, 24 Hour Protectant; conditions: control of fungal infection vs untreated plants; for pest or weed control at 100 ppm: Zymoseptoria tritici, 24 h, read-out: SEPTTR in vivo 1 Day Protectant
[12] = 100 ppm spray, wheat, 24 hour protectant, % control of fungal infection vs untreated plants
[13] = 100 ppm spray, wheat, 24 hour protectant, control of fungal infection vs untreated plants
[14] = 100 ppm spray, wheat, 24 hour protectant
[15] = wheat plants sprayed at 100 ppm, inoculated after 24 hours, control of fungal infection vs untreated plants
[16] = wheat plants sprayed at 100 ppm, inoculated after 24 hours
[17] = 100 ppm spray, 24 hour protectant, wheat, control of fungal infection vs untreated plants
[18] = 100 ppm spray, 24 hour protectant, wheat

Compound: COc1ccnc(C(=O)N[C@H]2COC(=O)[C@H](Cc3ccccc3)[C@@H](OC(=O)C(C)C)[C@H](C)OC2=O)c1OS(=O)(=O)c1ccc(C)cc1 [Compound 722]
- inhibition at 25 ppm [1]: < 80%
- inhibition at 25 ppm [2]: < 80%
- inhibition at 25 ppm ([3]; 25 ppm in growth medium): < 80%
- inhibition at 25 ppm ([4]; 25 ppm in growth medium): < 80%
- inhibition at 25 ppm [5]: < 80%
- inhibition at 25 ppm [6]: < 80%
- pest or weed control at 100 ppm [7]: < 25%
- pest or weed control at 100 ppm [8, 12]: 25 to 74%
- pest or weed control at 100 ppm [9, 12]: < 25%
- LEPTNO in vivo 1 Day Protectant [10, 12]: + +
- melting point: 153 to 155 °C

Compound: O=C(NC1CCCCCCC1)c1ncccc1O [Compound 203]
- inhibition at 25 ppm [1]: > 80%
- inhibition at 25 ppm [2]: > 80%
- inhibition at 25 ppm ([3]; 25 ppm in growth medium): > 80%
- inhibition at 25 ppm ([4]; 25 ppm in growth medium): > 80%
- inhibition at 25 ppm [5]: < 80%
- inhibition at 25 ppm [6]: < 80%
- melting point: 63 to 64 °C

Compound: COc1ccnc(C(=O)NC2CCN(Cc3cccc(C(F)(F)F)c3)CC2)c1O.O=C(O)/C=C\C(=O)O.O=C(O)/C=C\C(=O)O [Compound 307]
- inhibition at 25 ppm [1]: < 80%
- inhibition at 25 ppm [2]: < 80%
- inhibition at 25 ppm [3]: < 80%
- inhibition at 25 ppm [4]: < 80%
- inhibition at 25 ppm [5]: < 80%
- inhibition at 25 ppm [6]: < 80%
- pest or weed control at 100 ppm [7]: < 25%
- pest or weed control at 100 ppm ([8]; 24 h): < 25%
- pest or weed control at 100 ppm ([9]; 24 h): 25 to 74%
- pest or weed control at 100 ppm ([10]; 24 h): < 25%
- melting point: 168 to 170 °C

Compound: COc1ccnc(C(=O)N[C@H]2COC(=O)[C@H](Cc3ccccc3)[C@@H](OC(=O)C(C)C)[C@H](C)OC2=O)c1OS(C)(=O)=O [Compound 721]
- inhibition at 25 ppm [1]: < 80%
- inhibition at 25 ppm [2]: < 80%
- inhibition at 25 ppm ([3]; 25 ppm in growth medium): < 80%
- inhibition at 25 ppm ([4]; 25 ppm in growth medium): > 80%
- inhibition at 25 ppm [5]: < 80%
- inhibition at 25 ppm [6]: < 80%
- pest or weed control at 100 ppm [7]: < 25%
- PUCCRT in vivo 1 Day Protectant [8, 12]: + +
- pest or weed control at 100 ppm [9, 12]: < 25%
- LEPTNO in vivo 1 Day Protectant [10, 12]: + +
- melting point: 189 to 194 °C

Compound: COc1ccnc(C(=O)Nc2ccc(Oc3ccc(C(F)(F)F)cc3)cc2)c1OC(C)=O [Compound 709]
- inhibition at 25 ppm [1]: > 80%
- inhibition at 25 ppm [2]: > 80%
- inhibition at 25 ppm ([3]; 25 ppm in growth medium): > 80%
- inhibition at 25 ppm ([4]; 25 ppm in growth medium): > 80%
- inhibition at 25 ppm [5]: > 80%
- inhibition at 25 ppm [6]: < 80%
- pest or weed control at 100 ppm [7]: < 25%
- pest or weed control at 100 ppm [8, 12]: < 25%
- ERYSGT in vivo 1 Day Protectant [9, 12]: + +
- LEPTNO in vivo 1 Day Protectant [10, 12]: + +
- melting point: 165 to 166 °C

Compound: COc1ccnc(C(=O)N[C@H]2COC(=O)[C@H](Cc3ccccc3)[C@@H](OC(=O)C(C)C)[C@H](C)OC2=O)c1OC(=O)C(C)C [Compound 602]
- inhibition at 25 ppm [1]: < 80%
- inhibition at 25 ppm [2]: < 80%
- inhibition at 25 ppm ([3]; 25 ppm in growth medium): < 80%
- inhibition at 25 ppm ([4]; 25 ppm in growth medium): > 80%
- inhibition at 25 ppm [5]: < 80%
- inhibition at 25 ppm [6]: < 80%
- pest or weed control at 100 ppm [7]: < 25%
- pest or weed control at 100 ppm [9, 12]: < 25%
- melting point: 160 to 161 °C

Compound: COc1ccnc(C(=O)N[C@H]2COC(=O)[C@H](Cc3ccccc3)[C@@H](OC(=O)C3CCCCC3)[C@H](C)OC2=O)c1O [Compound 392]
- inhibition at 25 ppm [1]: > 80%
- inhibition at 25 ppm [2]: < 80%
- inhibition at 25 ppm ([3]; 25 ppm in growth medium): > 80%
- inhibition at 25 ppm ([4]; 25 ppm in growth medium): > 80%
- inhibition at 25 ppm [5]: < 80%
- inhibition at 25 ppm [6]: < 80%
- pest or weed control at 100 ppm [7]: < 25%
- pest or weed control at 100 ppm [8, 13]: 25 to 74%
- pest or weed control at 100 ppm [9, 13]: 25 to 74%
- pest or weed control at 100 ppm [11, 14]: 25 to 74%
- LEPTNO in vivo 1 Day Protectant [10, 13]: + +

Compound: COc1ccc(C(C)NC(=O)c2ccncc2O)cc1 (stereo not drawn) [Compound 508]
- inhibition at 25 ppm [1]: < 80%
- inhibition at 25 ppm [2]: < 80%
- inhibition at 25 ppm ([3]; 25 ppm in the growth medium): < 80%
- inhibition at 25 ppm ([4]; 25 ppm in the growth medium): < 80%
- inhibition at 25 ppm [5]: < 80%
- inhibition at 25 ppm [6]: < 80%
- pest or weed control at 100 ppm [7]: < 25%
- pest or weed control at 100 ppm [8, 15]: < 25%
- pest or weed control at 100 ppm [9, 15]: < 25%
- pest or weed control at 100 ppm [11, 16]: < 25%
- pest or weed control at 100 ppm [10, 15]: < 25%

Compound: COc1ccnc(C(=O)Nc2cccc(Oc3ccc(C)cc3)c2)c1O [Compound 414]
- inhibition at 25 ppm [1]: > 80%
- inhibition at 25 ppm [2]: < 80%
- inhibition at 25 ppm ([3]; 25 ppm in growth medium): > 80%
- inhibition at 25 ppm ([4]; 25 ppm in growth medium): > 80%
- inhibition at 25 ppm [5]: < 80%
- inhibition at 25 ppm [6]: < 80%
- pest or weed control at 100 ppm [7]: 25 to 74%
- pest or weed control at 100 ppm [8, 13]: 25 to 74%
- pest or weed control at 100 ppm [9, 13]: < 25%
- pest or weed control at 100 ppm [11, 14]: < 25%
- pest or weed control at 100 ppm [10, 13]: < 25%

Compound: COc1ccnc(C(=O)N[C@H]2CC3OC2[C@H](C)[C@@H](OCc2ccccc2)[C@H]3C)c1O (stereo partly drawn) [Compound 321]
- inhibition at 25 ppm [1]: < 80%
- inhibition at 25 ppm [2]: < 80%
- inhibition at 25 ppm ([3]; 25 ppm in growth medium): < 80%
- inhibition at 25 ppm ([4]; 25 ppm in growth medium): < 80%
- inhibition at 25 ppm [5]: < 80%
- inhibition at 25 ppm [6]: < 80%
- pest or weed control at 100 ppm [7]: < 25%
- pest or weed control at 100 ppm [8, 17]: 25 to 74%
- pest or weed control at 100 ppm [9, 17]: < 25%
- pest or weed control at 100 ppm [11, 18]: < 25%
- pest or weed control at 100 ppm [10, 17]: < 25%

Compound: COC(=O)C(COC(=O)CC(C)OC(=O)C(C)C)NC(=O)c1nccc(OC)c1O (stereo not drawn) [Compound 347]
- inhibition at 25 ppm [1]: < 80%
- inhibition at 25 ppm [2]: < 80%
- inhibition at 25 ppm ([3]; 25 ppm in growth medium): < 80%
- inhibition at 25 ppm ([4]; 25 ppm in growth medium): < 80%
- inhibition at 25 ppm [5]: < 80%
- inhibition at 25 ppm [6]: < 80%
- pest or weed control at 100 ppm [7]: < 25%
- pest or weed control at 100 ppm [8, 13]: 25 to 74%
- pest or weed control at 100 ppm [9, 13]: < 25%
- pest or weed control at 100 ppm [11, 14]: < 25%
- pest or weed control at 100 ppm [10, 13]: 25 to 74%

Compound: CC1(C)CC(NC(=O)c2ccncc2O)CC(C)(C)C1 [Compound 505]
- inhibition at 25 ppm [1]: < 80%
- inhibition at 25 ppm [2]: < 80%
- inhibition at 25 ppm ([3]; 25 ppm in the growth medium): < 80%
- inhibition at 25 ppm ([4]; 25 ppm in the growth medium): < 80%
- inhibition at 25 ppm [5]: < 80%
- inhibition at 25 ppm [6]: < 80%
- pest or weed control at 100 ppm [7]: < 25%
- pest or weed control at 100 ppm [8, 15]: < 25%
- pest or weed control at 100 ppm [9, 15]: < 25%
- pest or weed control at 100 ppm [11, 16]: < 25%
- pest or weed control at 100 ppm [10, 15]: < 25%

Compound: COc1ccnc(C(=O)NC2CC(C)(C)C=C[C@@H](C)[C@@H]2C)c1OC(C)=O (stereo partly drawn) [Compound 578]
- inhibition at 25 ppm [1]: < 80%
- inhibition at 25 ppm [2]: < 80%
- inhibition at 25 ppm ([3]; 25 ppm in the growth medium): < 80%
- inhibition at 25 ppm ([4]; 25 ppm in the growth medium): < 80%
- inhibition at 25 ppm [5]: < 80%
- inhibition at 25 ppm [6]: < 80%
- pest or weed control at 100 ppm [7]: < 25%
- pest or weed control at 100 ppm [8, 15]: < 25%
- pest or weed control at 100 ppm [9, 15]: < 25%
- pest or weed control at 100 ppm [11, 16]: 25 to 74%
- pest or weed control at 100 ppm [10, 15]: 25 to 74%

Compound: COc1ccnc(C(=O)NC2CCCC2=O)c1O (stereo not drawn) [Compound 249]
- inhibition at 25 ppm [1]: < 80%
- inhibition at 25 ppm [2]: < 80%
- inhibition at 25 ppm ([3]; 25 ppm in growth medium): < 80%
- inhibition at 25 ppm ([4]; 25 ppm in growth medium): < 80%
- inhibition at 25 ppm [5]: < 80%
- inhibition at 25 ppm [6]: < 80%
- pest or weed control at 100 ppm [7]: < 25%
- pest or weed control at 100 ppm [8, 17]: < 25%
- pest or weed control at 100 ppm [9, 17]: < 25%
- pest or weed control at 100 ppm [11, 18]: 25 to 74%
- pest or weed control at 100 ppm [10, 17]: 25 to 74%

Compound: COc1ccnc(C(=O)N[C@@H](Cc2ccc(OCc3ccccc3)cc2)C(=O)OCc2ccccc2)c1O [Compound 339]
- inhibition at 25 ppm [1]: < 80%
- inhibition at 25 ppm [2]: < 80%
- inhibition at 25 ppm ([3]; 25 ppm in growth medium): < 80%
- inhibition at 25 ppm ([4]; 25 ppm in growth medium): < 80%
- inhibition at 25 ppm [5]: < 80%
- inhibition at 25 ppm [6]: < 80%
- pest or weed control at 100 ppm [7]: < 25%
- PUCCRT in vivo 1 Day Protectant [8, 13]: + +
- pest or weed control at 100 ppm [9, 13]: < 25%
- SEPTTR in vivo 1 Day Protectant [11, 14]: + +
- LEPTNO in vivo 1 Day Protectant [10, 13]: + +
